Reference: PubChem BioAssay (NCI)
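1) Cells in 96-well plates. 2) Compound, 48 h, 5 concentrations. 3) Linear interpolation between surrounding doses. 4) Unreached endpoint = highest concentration. GI50 = concentration required for 50% inhibition of growth. TGI: concentration producing complete growth inhibition.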

Tests used:
Test in all cases: NCI-60 cell line screen, 48 h
EKVX NSCLC = tested on: EKVX NSCLC
UACC-257 melanoma = tested on: UACC-257 melanoma
PC-3 prostate = tested on: PC-3 prostate
LOX IMVI melanoma = tested on: LOX IMVI melanoma
NCI-H522 lung = tested on: NCI-H522 lung
UO-31 renal = tested on: UO-31 renal
SW-620 colon = tested on: SW-620 colon
MDA-MB-231 breast = tested on: MDA-MB-231 breast
SK-OV-3 ovarian = tested on: SK-OV-3 ovarian
OVCAR-3 ovarian = tested on: OVCAR-3 ovarian
HOP-92 NSCLC = tested on: HOP-92 NSCLC
BT-549 breast = tested on: BT-549 breast
ACHN renal = tested on: ACHN renal
786-0 renal = tested on: 786-0 renal
IGROV1 ovarian = tested on: IGROV1 ovarian
OVCAR-5 ovarian = tested on: OVCAR-5 ovarian
HL-60(TB) leukemia = tested on: HL-60(TB) leukemia
SNB-19 CNS = tested on: SNB-19 CNS
SF-295 CNS = tested on: SF-295 CNS
A498 renal = tested on: A498 renal
A549 NSCLC = tested on: A549 NSCLC
MDA-MB-435 = tested on: MDA-MB-435
KM12 colon = tested on: KM12 colon
SK-MEL-5 melanoma = tested on: SK-MEL-5 melanoma
HCT-15 colon = tested on: HCT-15 colon
HS 578T breast = tested on: HS 578T breast
DU-145 prostate = tested on: DU-145 prostate
NCI-H23 lung = tested on: NCI-H23 lung
CCRF-CEM leukemia = tested on: CCRF-CEM leukemia
NCI/ADR-RES ovarian = tested on: NCI/ADR-RES ovarian
SF-268 CNS = tested on: SF-268 CNS
NCI-H226 lung = tested on: NCI-H226 lung
RPMI-8226 leukemia = tested on: RPMI-8226 leukemia
MALME-3M melanoma = tested on: MALME-3M melanoma
HOP-62 NSCLC = tested on: HOP-62 NSCLC
MCF7 breast = tested on: MCF7 breast
HT29 colon = tested on: HT29 colon
MOLT-4 leukemia = tested on: MOLT-4 leukemia
M14 melanoma = tested on: M14 melanoma
TK-10 renal = tested on: TK-10 renal
SF-539 CNS = tested on: SF-539 CNS
T-47D breast = tested on: T-47D breast
HCC-2998 colon = tested on: HCC-2998 colon
OVCAR-8 ovarian = tested on: OVCAR-8 ovarian
SK-MEL-2 melanoma = tested on: SK-MEL-2 melanoma
HCT-116 colon = tested on: HCT-116 colon
COLO 205 colon = tested on: COLO 205 colon
RXF 393 renal = tested on: RXF 393 renal
OVCAR-4 ovarian = tested on: OVCAR-4 ovarian
NCI-H460 lung = tested on: NCI-H460 lung
UACC-62 melanoma = tested on: UACC-62 melanoma
SK-MEL-28 melanoma = tested on: SK-MEL-28 melanoma
SN12C renal = tested on: SN12C renal
CAKI-1 renal = tested on: CAKI-1 renal
SNB-75 CNS = tested on: SNB-75 CNS

Structure (SMILES): CCOC(=O)c1nnn(-c2no[n+]([O-])c2-c2ccc(OC)cc2)c1COc1cccc2cccnc12
- GI50 (EKVX NSCLC): 7.79 µM
- TGI (EKVX NSCLC): 35.2 µM
- TGI (UACC-257 melanoma): 25.7 µM
- GI50 (PC-3 prostate): 3.98 µM
- TGI (PC-3 prostate): 16.3 µM
- GI50 (LOX IMVI melanoma): 355 nM
- TGI (LOX IMVI melanoma): 1440 nM
- GI50 (NCI-H522 lung): 510 nM
- TGI (NCI-H522 lung): 2160 nM
- GI50 (UO-31 renal): 2450 nM
- TGI (UO-31 renal): 8.2 µM
- GI50 (SW-620 colon): 399 nM
- TGI (SW-620 colon): 1800 nM
- GI50 (MDA-MB-231 breast): 2730 nM
- TGI (MDA-MB-231 breast): 7.98 µM
- GI50 (SK-OV-3 ovarian): 6.12 µM
- TGI (SK-OV-3 ovarian): > 100 µM
- GI50 (OVCAR-3 ovarian): 2800 nM
- TGI (OVCAR-3 ovarian): 7.05 µM
- GI50 (HOP-92 NSCLC): 5.09 µM
- TGI (HOP-92 NSCLC): 20.6 µM
- GI50 (BT-549 breast): 657 nM
- TGI (BT-549 breast): 3.1 µM
- GI50 (ACHN renal): 1700 nM
- TGI (ACHN renal): 3.29 µM
- GI50 (786-0 renal): 2290 nM
- TGI (786-0 renal): 5.24 µM
- GI50 (IGROV1 ovarian): 4.27 µM
- TGI (IGROV1 ovarian): 16 µM
- GI50 (OVCAR-5 ovarian): 2900 nM
- TGI (OVCAR-5 ovarian): 8.21 µM
- GI50 (HL-60(TB) leukemia): 1070 nM
- TGI (HL-60(TB) leukemia): 5.31 µM
- GI50 (SNB-19 CNS): 3.25 µM
- TGI (SNB-19 CNS): 14 µM
- GI50 (SF-295 CNS): 3.09 µM
- TGI (SF-295 CNS): 13.7 µM
- GI50 (A498 renal): 2150 nM
- TGI (A498 renal): 8.75 µM
- GI50 (A549 NSCLC): 3.87 µM
- TGI (A549 NSCLC): 16.1 µM
- GI50 (MDA-MB-435): 1160 nM
- TGI (MDA-MB-435): 5.09 µM
- GI50 (KM12 colon): 4.32 µM
- TGI (KM12 colon): 17.8 µM
- GI50 (SK-MEL-5 melanoma): 3.46 µM
- TGI (SK-MEL-5 melanoma): 12.9 µM
- GI50 (HCT-15 colon): 2380 nM
- TGI (HCT-15 colon): 7.03 µM
- GI50 (HS 578T breast): 2760 nM
- TGI (HS 578T breast): 13.3 µM
- GI50 (DU-145 prostate): 5.24 µM
- TGI (DU-145 prostate): 17.1 µM
- GI50 (NCI-H23 lung): 3.79 µM
- TGI (NCI-H23 lung): 17.1 µM
- GI50 (CCRF-CEM leukemia): 318 nM
- TGI (CCRF-CEM leukemia): > 100 µM
- GI50 (NCI/ADR-RES ovarian): 3.05 µM
- TGI (NCI/ADR-RES ovarian): 21.9 µM
- GI50 (SF-268 CNS): 3.03 µM
- TGI (SF-268 CNS): 15 µM
- GI50 (NCI-H226 lung): 6.3 µM
- TGI (NCI-H226 lung): 39.7 µM
- GI50 (RPMI-8226 leukemia): 481 nM
- TGI (RPMI-8226 leukemia): 3.38 µM
- GI50 (MALME-3M melanoma): 2440 nM
- TGI (MALME-3M melanoma): 6.31 µM
- GI50 (HOP-62 NSCLC): 4.7 µM
- TGI (HOP-62 NSCLC): 25.9 µM
- GI50 (MCF7 breast): 1970 nM
- TGI (MCF7 breast): 17 µM
- GI50 (HT29 colon): 1420 nM
- TGI (HT29 colon): 3.45 µM
- GI50 (MOLT-4 leukemia): 1910 nM
- TGI (MOLT-4 leukemia): 8.47 µM
- GI50 (M14 melanoma): 1690 nM
- TGI (M14 melanoma): 7.49 µM
- GI50 (TK-10 renal): 2590 nM
- TGI (TK-10 renal): 7.35 µM
- GI50 (SF-539 CNS): 2190 nM
- TGI (SF-539 CNS): 6.13 µM
- GI50 (T-47D breast): 4.67 µM
- TGI (T-47D breast): 28.8 µM
- GI50 (HCC-2998 colon): 3.38 µM
- TGI (HCC-2998 colon): 9.98 µM
- GI50 (OVCAR-8 ovarian): 2230 nM
- TGI (OVCAR-8 ovarian): 8.03 µM
- GI50 (SK-MEL-2 melanoma): 1980 nM
- TGI (SK-MEL-2 melanoma): 9.95 µM
- GI50 (HCT-116 colon): 391 nM
- TGI (HCT-116 colon): 3.59 µM
- GI50 (COLO 205 colon): 2330 nM
- TGI (COLO 205 colon): 5.5 µM
- GI50 (RXF 393 renal): 1770 nM
- TGI (RXF 393 renal): 4.07 µM
- GI50 (OVCAR-4 ovarian): 2340 nM
- TGI (OVCAR-4 ovarian): 13.3 µM
- GI50 (NCI-H460 lung): 3.29 µM
- TGI (NCI-H460 lung): 11.5 µM
- GI50 (UACC-62 melanoma): 2380 nM
- TGI (UACC-62 melanoma): 12.8 µM
- GI50 (SK-MEL-28 melanoma): 2220 nM
- TGI (SK-MEL-28 melanoma): 6.15 µM
- GI50 (SN12C renal): 638 nM
- TGI (SN12C renal): 3.55 µM
- GI50 (CAKI-1 renal): 2230 nM
- TGI (CAKI-1 renal): 6.38 µM
- GI50 (SNB-75 CNS): 3.41 µM
- TGI (SNB-75 CNS): 14.1 µM
